From US20060069132A1, “Azolecarboxamide herbicides” (priority 2004, published 2006)

How the values were obtained:
barnyardgrass [1] = experiment: Test B pre-/postemergence herbicide test; assay type: in vivo, Echinochloa crus-galli
How it was run: (§1)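 Evaluation is visual, comparing treated with control plants on a scale where 0 means no effect and 100 means full control. Treatments were preemergence, or postemergence on seedlings 2–18 cm tall, and held 13–15 days in the greenhouse.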

Surinam grass = experiment: Test B pre-/postemergence herbicide test; assay type: in vivo, Urochloa decumbens
How it was run: (§2)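 Plants compared with untreated controls 13–15 days post-treatment and given a visual 0–100 injury score. Applications: preemergence to seeds; postemergence at 1- to 4-leaf (2–18 cm); paddy species flooded, 2-leaf stage. Vehicle non-phytotoxic, surfactant included.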

cocklebur = experiment: Test B pre-/postemergence herbicide test; assay type: in vivo, Xanthium strumarium
How it was run: as §1

corn = experiment: Test B pre-/postemergence herbicide test; assay type: in vivo, Zea mays
How it was run: as §2

large crabgrass = experiment: Test B pre-/postemergence herbicide test; assay type: in vivo, Digitaria sanguinalis
How it was run: as §2

giant foxtail = experiment: Test B pre-/postemergence herbicide test; assay type: in vivo, Setaria faberi
How it was run: as §2

lambsquarters = experiment: Test B pre-/postemergence herbicide test; assay type: in vivo, Chenopodium album
How it was run: as §2

morningglory = experiment: Test B pre-/postemergence herbicide test; assay type: in vivo, Ipomoea coccinea
How it was run: as §1

pigweed = experiment: Test B pre-/postemergence herbicide test; assay type: in vivo, Amaranthus retroflexus
How it was run: as §2

rice [2] = experiment: Test B pre-/postemergence herbicide test; assay type: in vivo, Oryza sativa; settings: 0 = no effect, 100 = complete control, preemergence; for Rice plant response rating (0 to 100 scale): 125 g ai/ha; for Plant response rating, Rice: 500 g ai/ha, visual rating
How it was run: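 Greenhouse pot assay with simultaneous preemergence (treated seed) and postemergence (2–18 cm seedlings) applications of surfactant-containing, non-phytotoxic solvent formulations. Response scored visually 13–15 days later on a 0–100 scale, 100 meaning complete control.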

velvetleaf = experiment: Test B pre-/postemergence herbicide test; assay type: in vivo, Abutilon theophrasti
How it was run: as §2

blackgrass = experiment: Test B postemergence herbicide test; assay type: in vivo, Alopecurus myosuroides
How it was run: (§3)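 Each value is a visual 0–100 response rating taken against controls 13 to 15 days after treatment in the greenhouse. Plants received formulated chemical postemergence at the 1- to 4-leaf stage or, in flooded paddy, at the 2-leaf stage.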

wheat = experiment: Test B postemergence herbicide test; assay type: in vivo, Triticum aestivum; set-up: key to Wheat plant response rating: 0 = no effect, 100 = complete control
How it was run: (§4)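 Scale 0–100: zero equals no visible effect, 100 complete control, judged by eye relative to controls. Timing: 13 to 15 days in greenhouse post-treatment. Growth stage at spraying: two leaves (paddy) or one to four leaves, 2–18 cm (postemergence).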

wild oat = experiment: Test B postemergence herbicide test; assay type: in vivo, Avena fatua
How it was run: as §4

rice [3] = experiment: Test B flooded paddy test; assay type: in vivo, Oryza sativa; settings: 1000 g ai/ha, scale 0 to 100 (0 no effect, 100 complete control)
How it was run: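 Formulated test chemicals went onto postemergence plants measuring 2 to 18 cm, at one to four leaves. For the paddy assay, species had reached two leaves. Scoring took place 13–15 days later by eye, relative to untreated plants, using 0 for no effect up to 100 for full control.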

[4] = tested on: small flower umbrella sedge; experiment: Test B flooded paddy test; assay type: in vivo, Cyperus difformis; settings: 1000 g ai/ha, scale 0 to 100 (0 no effect, 100 complete control)
How it was run: as §3

ducksalad [5] = experiment: Test B flooded paddy test; assay type: in vivo, Heteranthera limosa; settings: 1000 g ai/ha, scale 0 to 100 (0 no effect, 100 complete control)
How it was run: as §3

barnyardgrass [6] = experiment: Test B flooded paddy test; assay type: in vivo, Echinochloa crus-galli; settings: 1000 g ai/ha, scale 0 to 100 (0 no effect, 100 complete control)
How it was run: as §3

rice [7] = experiment: Test C flooded paddy test; assay type: in vivo, Oryza sativa; settings: for Plant response rating, Rice: 500 g ai/ha, visual rating after 12 to 14 days
How it was run: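 Plants were grown to the 1- to 4-leaf stage (2–18 cm) and then treated postemergence, or grown to the 2-leaf stage for the flooded paddy test. They were held in a greenhouse for 12 to 14 days and then scored by eye against controls, where 0 is no effect and 100 is complete control.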

[8] = tested on: smallflower umbrella sedge; experiment: Test C flooded paddy test; assay type: in vivo, Cyperus difformis; settings: for Plant response rating, Sedge, Umbrella: 500 g ai/ha, visual rating after 12 to 14 days
ducksalad [9] = experiment: Test C flooded paddy test; assay type: in vivo, Heteranthera limosa; settings: for Plant response rating, Ducksalad: 500 g ai/ha, visual rating after 12 to 14 days
barnyardgrass [10] = experiment: Test C flooded paddy test; assay type: in vivo, Echinochloa crus-galli; settings: for Plant response rating, Barnyardgrass: 500 g ai/ha, visual rating after 12 to 14 days
How it was run: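 Scoring by eye, 12–14 days post-treatment, greenhouse-held plants vs. controls; 0 no effect, 100 complete control. Sprayed at 1–4 leaves (2–18 cm); paddy barnyardgrass at 2 leaves, flooded.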

[11] = 125 g ai/ha; 0 = no effect, 100 = complete control; preemergence
[12] = 500 g ai/ha; visual rating, 0 = no effect, 100 = complete control; preemergence
[13] = postemergence, 125 g ai/ha; visual rating, scale 0 (no effect) to 100 (complete control)
[14] = postemergence, 500 g ai/ha; visual rating, scale 0 (no effect) to 100 (complete control)
[15] = postemergence, 500 g ai/ha; scale 0 to 100, 0 is no effect, 100 is complete control
[16] = 125 g ai/ha, scale 0 to 100 (0 no effect, 100 complete control)
[17] = 250 g ai/ha, scale of 0 to 100, 0 is no effect, 100 is complete control
[18] = scale 0 to 100 (0 no effect, 100 complete control)
[19] = 62 g ai/ha, scale 0 to 100 (0 no effect, 100 complete control)
[20] = 125 g ai/ha; visual rating, scale 0 (no effect) to 100 (complete control); postemergence

CCn1nc(C(C)(C)C)cc1C(=O)Nc1cncc(C(=O)N2CC=CC2)c1 [Compound 260]
Barnyardgrass plant response rating (0 to 100 scale) (barnyardgrass [1]; [11]): 0 | Plant response rating, Barnyardgrass (barnyardgrass [1]; [12]): 70 | Barnyardgrass plant response rating (barnyardgrass [1]; [13]): 0 | Barnyardgrass plant response rating (barnyardgrass [1]; [14]): 0 | Surinam Grass plant response rating (0 to 100 scale) (Surinam grass; [11]): 0 | Plant response rating, Surinam Grass (Surinam grass; [12]): 10 | Surinam Grass plant response rating (Surinam grass; [13]): 0 | Surinam Grass plant response rating (Surinam grass; [15]): 20 | Cocklebur plant response rating (0 to 100 scale) (cocklebur; [11]): 0 | Plant response rating, Cocklebur (cocklebur; [12]): 0 | Cocklebur plant response rating (cocklebur; [13]): 10 | Cocklebur plant response rating (cocklebur; [14]): 20 | Corn plant response rating (0 to 100 scale) (corn; [11]): 0 | Plant response rating, Corn (corn; [12]): 0 | Corn plant response rating (corn; [13]): 0 | Corn plant response rating (corn; [15]): 0 | Crabgrass, Large plant response rating (0 to 100 scale) (large crabgrass; [11]): 0 | Crabgrass, Large plant response rating (large crabgrass; [13]): 0 | Crabgrass, Large plant response rating (large crabgrass; [15]): 10 | Foxtail, Giant plant response rating (0 to 100 scale) (giant foxtail; [11]): 0 | Plant response rating, Foxtail, Giant (giant foxtail; [12]): 30 | Foxtail, Giant plant response rating (giant foxtail; [13]): 0 | Foxtail, Giant plant response rating (giant foxtail; [15]): 0 | Plant response rating, Lambsquarters (lambsquarters; [12]): 100 | Lambsquarters plant response rating (lambsquarters; [13]): 10 | Lambsquarters plant response rating (lambsquarters; [15]): 30 | Morningglory plant response rating (0 to 100 scale) (morningglory; [11]): 0 | Plant response rating, Morningglory (morningglory; [12]): 0 | Morningglory plant response rating (morningglory; [13]): 0 | Morningglory plant response rating (morningglory; [15]): 10 | Plant response rating, Pigweed (pigweed; [12]): 100 | Pigweed plant response rating (pigweed; [13]): 20 | Pigweed plant response rating (pigweed; [15]): 70 | Rice plant response rating (0 to 100 scale) (rice [2]): 0 | Plant response rating, Rice (rice [2]): 30 | Velvetleaf plant response rating (0 to 100 scale) (velvetleaf; [11]): 0 | Plant response rating, Velvetleaf (velvetleaf; [12]): 10 | Velvetleaf plant response rating (velvetleaf; [13]): 0 | Velvetleaf plant response rating (velvetleaf; [15]): 20 | Blackgrass plant response rating (blackgrass; [13]): 10 | Blackgrass plant response rating (blackgrass; [14]): 10 | Wheat plant response rating (wheat; [13]): 20 | Wheat plant response rating (wheat; [15]): 40 | Oat, Wild plant response rating (wild oat; [13]): 20 | Oat, Wild plant response rating (wild oat; [15]): 30 | Rice plant response rating (rice [3]): 70 | Sedge, Umbrella plant response rating [4]: 70 | Ducksalad plant response rating (ducksalad [5]): 90 | Barnyardgrass plant response rating (barnyardgrass [6]): 60 | Rice plant response rating (rice [7]; 62 g ai/ha, scale 0 to 100): 0 | Rice plant response rating (rice [7]; [16]): 0 | Rice plant response rating (rice [7]; [17]): 0 | Plant response rating, Rice (rice [7]; [18]): 15 | Sedge, Umbrella plant response rating ([8]; 62 g ai/ha, scale 0 to 100): 0 | Sedge, Umbrella plant response rating [8, 16]: 40 | Sedge, Umbrella plant response rating [8, 17]: 65 | Plant response rating, Sedge, Umbrella [8, 18]: 65 | Ducksalad plant response rating (ducksalad [9]; 62 g ai/ha, scale 0 to 100): 0 | Ducksalad plant response rating (ducksalad [9]; [16]): 70 | Ducksalad plant response rating (ducksalad [9]; [17]): 75 | Plant response rating, Ducksalad (ducksalad [9]; [18]): 85 | Barnyardgrass plant response rating (barnyardgrass [10]; [19]): 0 | Barnyardgrass plant response rating (barnyardgrass [10]; [16]): 0 | Barnyardgrass plant response rating (barnyardgrass [10]; [17]): 20 | Plant response rating, Barnyardgrass (barnyardgrass [10]; [18]): 35

CCN(CC)C(=O)c1ccc(F)c(NC(=O)C2CC(C(C)(C)C)=NN2CC)c1 (racemic) [Compound 308]
Barnyardgrass plant response rating (0 to 100 scale) (barnyardgrass [1]; [11]): 20 | Barnyardgrass plant response rating (barnyardgrass [1]; [20]): 0 | Plant response rating, Barnyardgrass (barnyardgrass [1]; [12]): 80 | Barnyardgrass plant response rating (barnyardgrass [1]; [15]): 10 | Surinam Grass plant response rating (0 to 100 scale) (Surinam grass; [11]): 20 | Surinam Grass plant response rating (Surinam grass; [20]): 10 | Plant response rating, Surinam Grass (Surinam grass; [12]): 60 | Surinam Grass plant response rating (Surinam grass; [15]): 20 | Cocklebur plant response rating (0 to 100 scale) (cocklebur; [11]): 0 | Cocklebur plant response rating (cocklebur; [20]): 0 | Plant response rating, Cocklebur (cocklebur; [12]): 0 | Cocklebur plant response rating (cocklebur; [15]): 40 | Corn plant response rating (0 to 100 scale) (corn; [11]): 20 | Corn plant response rating (corn; [20]): 0 | Plant response rating, Corn (corn; [12]): 70 | Corn plant response rating (corn; [15]): 10 | Crabgrass, Large plant response rating (0 to 100 scale) (large crabgrass; [11]): 40 | Crabgrass, Large plant response rating (large crabgrass; [20]): 0 | Plant response rating, Crabgrass, Large (large crabgrass; [12]): 70 | Crabgrass, Large plant response rating (large crabgrass; [15]): 10 | Foxtail, Giant plant response rating (0 to 100 scale) (giant foxtail; [11]): 10 | Foxtail, Giant plant response rating (giant foxtail; [20]): 10 | Plant response rating, Foxtail, Giant (giant foxtail; [12]): 90 | Foxtail, Giant plant response rating (giant foxtail; [15]): 20 | Lambsquarters plant response rating (0 to 100 scale) (lambsquarters; [11]): 100 | Lambsquarters plant response rating (lambsquarters; [20]): 50 | Plant response rating, Lambsquarters (lambsquarters; [12]): 100 | Lambsquarters plant response rating (lambsquarters; [15]): 60 | Morningglory plant response rating (0 to 100 scale) (morningglory; [11]): 0 | Morningglory plant response rating (morningglory; [20]): 0 | Plant response rating, Morningglory (morningglory; [12]): 10 | Morningglory plant response rating (morningglory; [15]): 20 | Pigweed plant response rating (0 to 100 scale) (pigweed; [11]): 80 | Pigweed plant response rating (pigweed; [20]): 60 | Plant response rating, Pigweed (pigweed; [12]): 100 | Pigweed plant response rating (pigweed; [15]): 70 | Rice plant response rating (0 to 100 scale) (rice [2]): 20 | Plant response rating, Rice (rice [2]): 50 | Velvetleaf plant response rating (velvetleaf; [20]): 10 | Plant response rating, Velvetleaf (velvetleaf; [12]): 100 | Velvetleaf plant response rating (velvetleaf; [15]): 20 | Blackgrass plant response rating (blackgrass; [20]): 10 | Blackgrass plant response rating (blackgrass; [15]): 30 | Wheat plant response rating (wheat; [20]): 10 | Wheat plant response rating (wheat; [15]): 20 | Oat, Wild plant response rating (wild oat; [20]): 10 | Oat, Wild plant response rating (wild oat; [15]): 20 | Rice plant response rating (rice [3]): 70 | Sedge, Umbrella plant response rating [4]: 90 | Ducksalad plant response rating (ducksalad [5]): 90 | Barnyardgrass plant response rating (barnyardgrass [6]): 90 | Rice plant response rating (rice [7]; 62 g ai/ha, scale 0 to 100): 15 | Rice plant response rating (rice [7]; [16]): 25 | Rice plant response rating (rice [7]; [17]): 65 | Plant response rating, Rice (rice [7]; [18]): 70 | Sedge, Umbrella plant response rating ([8]; 62 g ai/ha, scale 0 to 100): 0 | Sedge, Umbrella plant response rating [8, 16]: 25 | Sedge, Umbrella plant response rating [8, 17]: 70 | Plant response rating, Sedge, Umbrella [8, 18]: 80 | Ducksalad plant response rating (ducksalad [9]; 62 g ai/ha, scale 0 to 100): 0 | Ducksalad plant response rating (ducksalad [9]; [16]): 0 | Ducksalad plant response rating (ducksalad [9]; [17]): 15 | Plant response rating, Ducksalad (ducksalad [9]; [18]): 75 | Barnyardgrass plant response rating (barnyardgrass [10]; [19]): 0 | Barnyardgrass plant response rating (barnyardgrass [10]; [16]): 0 | Barnyardgrass plant response rating (barnyardgrass [10]; [17]): 25 | Plant response rating, Barnyardgrass (barnyardgrass [10]; [18]): 65
